According to US6699895B2, “2-aminothiazoline derivatives and process for preparing the same” (Aventis Pharma S.A., priority 2000, dated 2004):

Cl.NC1=N[C@H](Cc2cccs2)CS1
melting point: 125 to 127 °C
